Experimental findings from ChEMBL document CHEMBL1201862, “PubChem BioAssay data set” (2004) are described below.

Test [1] deals with Dual specificity tyrosine-phosphorylation-regulated kinase 1A (Homo sapiens, UniProt Q13627). It counts as functional.
Test [2] addresses Platelet-derived growth factor receptor alpha (Homo sapiens, UniProt P16234). Description: Navigating the Kinome. Panel member name: PDGFRA. It is filed as functional.
Test [3] has as its target Macrophage-stimulating protein receptor (Homo sapiens, UniProt Q04912). Description: Navigating the Kinome. Panel member name: MST1R. It counts as functional.
Test [4] addresses Cyclin-dependent kinase 9 (Homo sapiens, UniProt P50750). It counts as functional.
For test [5], the target named is Protein kinase C theta type (Homo sapiens, UniProt Q04759). Description: Navigating the Kinome. Panel member name: PRKCQ. It counts as functional.
Test [6] concerns the target Ribosomal protein S6 kinase alpha-3 (Homo sapiens, UniProt P51812). It counts as functional.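 Note: measured within a kinome-wide profiling panel.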
Test [7] concerns the target Cyclin-dependent kinase 8 (Homo sapiens, UniProt P49336). Description: Navigating the Kinome. Panel member name: CDK8. It is filed as functional.
The target in test [8] is Serine/threonine-protein kinase D2 (Homo sapiens, UniProt Q9BZL6). It is filed as functional.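 Note: measured against PRKD2 as one member of a kinome-wide kinase profiling panel.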
Chain of Serine/threonine-protein kinase D2 (Q9BZL6 whole entry): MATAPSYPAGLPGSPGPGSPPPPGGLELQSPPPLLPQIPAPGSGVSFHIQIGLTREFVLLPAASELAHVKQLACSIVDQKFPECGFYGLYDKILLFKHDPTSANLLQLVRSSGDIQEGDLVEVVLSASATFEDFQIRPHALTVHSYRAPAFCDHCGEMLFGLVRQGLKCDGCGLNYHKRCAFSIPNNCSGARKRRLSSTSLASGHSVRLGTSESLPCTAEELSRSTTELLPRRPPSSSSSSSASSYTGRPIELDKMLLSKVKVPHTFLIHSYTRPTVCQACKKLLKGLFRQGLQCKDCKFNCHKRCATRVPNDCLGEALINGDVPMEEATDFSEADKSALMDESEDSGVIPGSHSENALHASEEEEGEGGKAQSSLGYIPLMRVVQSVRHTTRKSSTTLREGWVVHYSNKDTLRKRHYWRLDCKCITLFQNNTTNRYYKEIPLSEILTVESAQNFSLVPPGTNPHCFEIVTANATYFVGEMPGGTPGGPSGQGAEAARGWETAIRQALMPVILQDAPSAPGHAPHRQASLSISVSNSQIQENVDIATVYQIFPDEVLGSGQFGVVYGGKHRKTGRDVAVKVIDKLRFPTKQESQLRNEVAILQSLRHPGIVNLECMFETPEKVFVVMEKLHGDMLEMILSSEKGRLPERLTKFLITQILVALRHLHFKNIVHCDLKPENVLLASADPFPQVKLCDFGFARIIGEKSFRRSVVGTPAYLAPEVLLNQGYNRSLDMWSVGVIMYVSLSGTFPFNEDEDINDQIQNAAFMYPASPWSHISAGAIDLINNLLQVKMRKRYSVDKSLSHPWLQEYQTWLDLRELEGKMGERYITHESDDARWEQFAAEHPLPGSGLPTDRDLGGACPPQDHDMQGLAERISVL
Test [9] has as its target Serine/threonine-protein kinase Chk2 (Homo sapiens, UniProt O96017). It counts as functional.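 Note: CHEK2 entry within a kinome-wide screening panel.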
Test [10] has as its target Testis-specific serine/threonine-protein kinase 2 (Homo sapiens, UniProt Q96PF2). It is filed as functional.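 Note: part of the Navigating the Kinome panel, target entry STK22B.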
Test [11] has as its target Tyrosine-protein kinase Srms (Homo sapiens, UniProt Q9H3Y6). It counts as functional.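 Note: SRMS measured as one member of a kinome-wide kinase profiling panel.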
For test [12], the target named is Homeodomain-interacting protein kinase 4 (Homo sapiens, UniProt Q8NE63). It counts as functional.
Chain of Homeodomain-interacting protein kinase 4 (Q8NE63 whole entry): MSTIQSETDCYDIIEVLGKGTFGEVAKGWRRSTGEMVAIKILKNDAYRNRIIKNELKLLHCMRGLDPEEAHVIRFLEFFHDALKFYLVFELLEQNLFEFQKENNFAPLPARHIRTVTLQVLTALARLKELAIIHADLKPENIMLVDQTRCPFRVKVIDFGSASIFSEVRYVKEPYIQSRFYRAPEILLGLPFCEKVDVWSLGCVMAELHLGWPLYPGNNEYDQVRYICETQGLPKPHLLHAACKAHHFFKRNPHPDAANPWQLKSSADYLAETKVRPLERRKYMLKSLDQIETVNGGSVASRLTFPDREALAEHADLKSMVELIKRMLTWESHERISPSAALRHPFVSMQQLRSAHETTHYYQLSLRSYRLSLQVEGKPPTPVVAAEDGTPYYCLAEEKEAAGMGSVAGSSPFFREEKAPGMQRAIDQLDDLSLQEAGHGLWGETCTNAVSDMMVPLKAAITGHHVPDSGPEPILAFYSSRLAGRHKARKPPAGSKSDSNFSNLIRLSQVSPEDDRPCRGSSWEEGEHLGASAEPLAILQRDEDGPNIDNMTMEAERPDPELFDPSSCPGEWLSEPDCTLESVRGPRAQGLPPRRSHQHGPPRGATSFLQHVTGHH
Test [13] concerns the target Serine/threonine-protein kinase Nek4 (Homo sapiens, UniProt P51957). It counts as functional.
For test [14], the target named is Inhibitor of nuclear factor kappa-B kinase subunit beta (Homo sapiens, UniProt O14920). It is filed as functional.
For test [15], the target named is Calcium/calmodulin-dependent protein kinase type 1 (Homo sapiens, UniProt Q14012). It counts as functional.
Test [16] deals with Calcium/calmodulin-dependent protein kinase type II subunit delta (Homo sapiens, UniProt Q13557). It counts as functional.
Test [17] has as its target Focal adhesion kinase 1 (Homo sapiens, UniProt Q05397). It is filed as functional.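 Note: measured as one member of a kinome panel.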
Test [18] addresses Serine/threonine-protein kinase 17A (Homo sapiens, UniProt Q9UEE5). It is filed as functional.
The target of test [19] is Serine/threonine-protein kinase pim-3 (Homo sapiens, UniProt Q86V86). It is filed as functional.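 Note: value obtained as one member of a broad kinase panel profiling effort.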
Test [20] deals with Receptor tyrosine-protein kinase erbB-2 (Homo sapiens, UniProt P04626). Description: Navigating the Kinome. Panel member name: ERBB2. It counts as functional.
Chain of Receptor tyrosine-protein kinase erbB-2 (P04626 whole entry): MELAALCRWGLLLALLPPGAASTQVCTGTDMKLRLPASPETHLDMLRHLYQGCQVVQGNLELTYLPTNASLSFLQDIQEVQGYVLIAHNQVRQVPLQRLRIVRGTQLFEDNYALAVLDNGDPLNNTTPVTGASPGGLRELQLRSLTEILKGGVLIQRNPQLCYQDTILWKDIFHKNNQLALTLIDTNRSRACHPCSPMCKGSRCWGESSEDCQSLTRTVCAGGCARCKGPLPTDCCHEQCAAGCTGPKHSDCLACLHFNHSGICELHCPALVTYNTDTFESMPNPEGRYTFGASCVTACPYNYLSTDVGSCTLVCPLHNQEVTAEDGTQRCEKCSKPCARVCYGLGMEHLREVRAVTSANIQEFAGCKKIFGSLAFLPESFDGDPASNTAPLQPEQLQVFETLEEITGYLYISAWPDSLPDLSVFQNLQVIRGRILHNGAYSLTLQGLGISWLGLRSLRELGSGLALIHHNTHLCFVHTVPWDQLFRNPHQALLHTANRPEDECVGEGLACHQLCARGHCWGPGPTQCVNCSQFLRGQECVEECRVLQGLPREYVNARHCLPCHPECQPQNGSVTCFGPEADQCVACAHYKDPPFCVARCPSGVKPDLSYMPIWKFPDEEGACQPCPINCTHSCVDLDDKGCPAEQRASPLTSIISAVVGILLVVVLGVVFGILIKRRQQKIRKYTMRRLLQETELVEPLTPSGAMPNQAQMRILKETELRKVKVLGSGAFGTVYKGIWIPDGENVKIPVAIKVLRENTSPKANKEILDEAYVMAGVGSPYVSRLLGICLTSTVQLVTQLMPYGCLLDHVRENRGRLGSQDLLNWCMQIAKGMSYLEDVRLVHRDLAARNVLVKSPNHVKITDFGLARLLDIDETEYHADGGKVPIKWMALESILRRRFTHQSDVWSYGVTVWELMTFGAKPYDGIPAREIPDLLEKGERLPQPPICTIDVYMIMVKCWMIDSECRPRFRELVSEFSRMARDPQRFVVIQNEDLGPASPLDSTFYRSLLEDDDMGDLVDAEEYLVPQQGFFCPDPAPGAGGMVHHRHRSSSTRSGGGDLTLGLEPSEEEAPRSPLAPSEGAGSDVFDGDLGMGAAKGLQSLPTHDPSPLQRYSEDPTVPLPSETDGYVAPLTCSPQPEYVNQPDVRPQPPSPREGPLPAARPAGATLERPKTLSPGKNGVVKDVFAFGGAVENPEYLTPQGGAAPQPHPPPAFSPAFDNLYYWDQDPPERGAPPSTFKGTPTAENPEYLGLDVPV
In test [21] the target is Cyclin-dependent kinase 2 (Homo sapiens, UniProt P24941). It counts as functional.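 Note: CDK2 measured as one member of a broad kinome profiling panel.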
Test [22] addresses Casein kinase II subunit alpha (Homo sapiens, UniProt P68400). It counts as functional.
Test [23] deals with Heat shock protein HSP 90-alpha (Homo sapiens, UniProt P07900). It counts as functional, organism-based.
Test [24] addresses T1, Ubiquitin-conjugating enzyme E2 N (Homo sapiens, UniProt P61088).
T1 sequence (P61088 whole entry): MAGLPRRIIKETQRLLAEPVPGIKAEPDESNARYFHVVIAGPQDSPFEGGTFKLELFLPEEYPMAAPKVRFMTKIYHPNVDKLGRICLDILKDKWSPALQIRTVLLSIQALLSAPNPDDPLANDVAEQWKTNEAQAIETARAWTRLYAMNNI
It is filed as functional.

A short description of test [25]: NIH-3T3 fibroblast cytotoxicity, dose response, cytotoxicity control, cell-based, fluorescence, Alamar Blue, secondary assay (AID 2327).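 Note: NIH-3T3 mouse fibroblasts cultured with fluconazole at 8 µg/mL.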 It is filed as functional. Background: The colour change of resazurin is a common sign of viable cells or microbes.
Test [26] is described as follows: growth suppression of beta-catenin-knockout colon cells, dose response, cell-based, HCT116, human colon tumor (AID 1045).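 Note: HCT116 colon tumor cells with beta catenin knocked out; cells exposed to compound for 60 hours.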 It counts as functional.

As usually defined, the Ki is a measure of affinity in units of concentration, obtained from inhibition or displacement. As usually defined, the AC50 is the midpoint of the concentration-response curve, whichever way the signal moves. What is called IC50 is the concentration that inhibits the measured activity by half. What is called EC50 is the concentration needed to bring the measured effect to its halfway point.

Activity calls are given as the source filed them. Bounds are passed on as bounds.
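Throughout, for IC50: Dose-response confirmation in a TR-FRET assay detecting UBC13-driven polyubiquitin chain formation, inhibition measured.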

Chain of Ribosomal protein S6 kinase alpha-3 (P51812 whole entry): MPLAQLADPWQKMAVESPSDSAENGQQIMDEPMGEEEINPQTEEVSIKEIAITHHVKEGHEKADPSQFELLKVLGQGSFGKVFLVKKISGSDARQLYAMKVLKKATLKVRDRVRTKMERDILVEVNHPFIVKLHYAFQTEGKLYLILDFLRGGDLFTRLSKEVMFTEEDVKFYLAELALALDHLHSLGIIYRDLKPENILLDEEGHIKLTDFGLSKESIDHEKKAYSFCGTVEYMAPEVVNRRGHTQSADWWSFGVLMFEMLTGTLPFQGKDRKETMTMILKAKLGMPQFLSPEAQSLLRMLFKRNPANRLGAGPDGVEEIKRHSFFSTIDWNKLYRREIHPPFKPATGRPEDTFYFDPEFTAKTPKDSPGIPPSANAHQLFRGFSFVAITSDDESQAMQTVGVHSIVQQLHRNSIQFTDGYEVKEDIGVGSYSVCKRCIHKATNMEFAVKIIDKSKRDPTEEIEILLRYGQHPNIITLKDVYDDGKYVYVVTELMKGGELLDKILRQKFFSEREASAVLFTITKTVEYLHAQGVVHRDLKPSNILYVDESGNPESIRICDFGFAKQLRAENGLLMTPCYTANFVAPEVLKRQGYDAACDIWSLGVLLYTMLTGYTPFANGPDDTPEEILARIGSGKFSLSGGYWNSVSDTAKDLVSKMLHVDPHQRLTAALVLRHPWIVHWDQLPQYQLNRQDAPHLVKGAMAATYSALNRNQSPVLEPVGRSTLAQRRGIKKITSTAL
Chain of Platelet-derived growth factor receptor alpha (P16234 whole entry): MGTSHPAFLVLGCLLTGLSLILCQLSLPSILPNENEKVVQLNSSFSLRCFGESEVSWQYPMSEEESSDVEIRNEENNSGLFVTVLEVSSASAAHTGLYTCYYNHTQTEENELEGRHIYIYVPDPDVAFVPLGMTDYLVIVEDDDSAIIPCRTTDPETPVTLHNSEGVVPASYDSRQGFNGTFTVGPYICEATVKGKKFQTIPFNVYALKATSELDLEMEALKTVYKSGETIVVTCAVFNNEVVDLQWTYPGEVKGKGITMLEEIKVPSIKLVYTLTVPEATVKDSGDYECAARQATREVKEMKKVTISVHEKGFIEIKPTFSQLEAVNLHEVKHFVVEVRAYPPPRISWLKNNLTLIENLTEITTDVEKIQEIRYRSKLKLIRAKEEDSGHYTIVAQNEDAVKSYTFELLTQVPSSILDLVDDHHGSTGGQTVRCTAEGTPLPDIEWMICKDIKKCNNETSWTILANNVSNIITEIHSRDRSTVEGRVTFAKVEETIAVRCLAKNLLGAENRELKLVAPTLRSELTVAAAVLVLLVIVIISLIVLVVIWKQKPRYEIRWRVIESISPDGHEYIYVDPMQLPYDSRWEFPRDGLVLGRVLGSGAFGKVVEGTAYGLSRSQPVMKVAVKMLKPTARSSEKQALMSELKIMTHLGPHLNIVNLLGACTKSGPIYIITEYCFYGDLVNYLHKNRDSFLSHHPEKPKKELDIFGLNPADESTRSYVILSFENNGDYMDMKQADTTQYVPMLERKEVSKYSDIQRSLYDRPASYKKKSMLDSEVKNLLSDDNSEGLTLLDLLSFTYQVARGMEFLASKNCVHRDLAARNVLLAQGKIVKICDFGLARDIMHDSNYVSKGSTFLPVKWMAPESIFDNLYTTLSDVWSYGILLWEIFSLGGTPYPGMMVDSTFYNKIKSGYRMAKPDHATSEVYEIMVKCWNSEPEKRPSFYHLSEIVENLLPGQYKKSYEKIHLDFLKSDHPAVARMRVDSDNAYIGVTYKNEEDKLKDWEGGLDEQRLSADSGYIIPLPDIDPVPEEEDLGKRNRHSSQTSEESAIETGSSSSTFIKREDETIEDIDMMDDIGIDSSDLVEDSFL
Chain of Tyrosine-protein kinase Srms (Q9H3Y6 whole entry): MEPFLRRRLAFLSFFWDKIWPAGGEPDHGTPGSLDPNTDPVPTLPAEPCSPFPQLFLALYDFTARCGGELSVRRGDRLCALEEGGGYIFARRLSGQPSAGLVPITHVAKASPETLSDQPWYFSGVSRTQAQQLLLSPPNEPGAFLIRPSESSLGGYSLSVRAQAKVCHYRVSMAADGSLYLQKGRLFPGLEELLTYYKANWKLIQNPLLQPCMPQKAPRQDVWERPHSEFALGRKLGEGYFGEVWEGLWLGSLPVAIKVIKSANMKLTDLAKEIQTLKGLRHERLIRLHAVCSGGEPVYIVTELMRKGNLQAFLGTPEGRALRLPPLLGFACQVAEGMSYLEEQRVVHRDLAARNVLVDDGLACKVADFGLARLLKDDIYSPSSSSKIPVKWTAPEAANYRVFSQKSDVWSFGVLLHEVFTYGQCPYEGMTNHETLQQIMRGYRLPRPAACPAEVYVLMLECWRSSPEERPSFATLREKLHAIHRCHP

Regarding `CCn1c(-c2nonc2N)nc2cncc(C(=O)N3CCC(N)C3)c21` (stereo unspecified), the Ki in [1] was 0.1 µM (active); in [2], > 2.51 µM (inactive); in test [3], > 3.98 µM (inactive); in test [4] it was > 1.58 µM (inactive); in test [5], 0.1 µM (active); in test [6], 0.0398 µM (active). For the same compound, the Ki in test [7] was 3.98 µM (active).
As for `Cc1[nH]nc2ccc(-c3cncc(OCC(N)Cc4c[nH]c5ccccc45)c3)cc12` (stereo unspecified), the Ki in test [8] is 0.0316 µM (active); in [9], 0.501 µM (active); in test [10], > 1.58 µM (inactive); in test [11], > 1.58 µM (inactive); in test [12], 0.501 µM (active); in test [13] it was 1 µM (active). Further, the Ki is > 3.16 µM (inactive) in test [14]; > 7.94 µM (inactive) in test [15]; 0.0158 µM (active) in test [16]; > 1.58 µM (inactive) in [17]; 0.126 µM (active) in test [18]; 0.01 µM (active) in test [19]. The results for the Ki in test [20], in [21] and in test [22] were > 1.58 µM (inactive), 0.0501 µM (active) and > 6.31 µM (inactive), respectively.
With `CCCCCCCCCCC[N+](C)(C)CC/C=C1/c2ccccc2Sc2ccc(Cl)cc21`, the AC50 in test [23] was 6.77 µM (active). Also, the IC50 in test [24] was 4.77 µM (active). In addition, the EC50 in test [25] is > 150 µM (inconclusive).
Regarding `COC(=O)c1ccccc1NC1=C/C(=N\S(=O)(=O)c2cccs2)c2ccccc2C1=O`, in test [26], the EC50 was 8.19 µM (active).
